Test results from US20230149401A1 (priority 2020, published 2023).

Tested on: HIV particles pseudotyped with SARS-CoV-2 S
Format: cell-based

`CCN(CC)CCCC(C)Nc1ccnc2cc(Cl)ccc12` (stereo not shown) [chloroquine, reference compound] was tested, and the “Entry of pseudotyped SARS-CoV-2 and its μS1/S2 mutant” value was “efficiently blocked entry”.
